In DBAASP:
Converted amounts (≈) assume the structure as drawn. “And” between values parts separate entries of the source, which are not always exact repeats. Equal values may be shown once. Each block holds one compound with its values, some of them ahead of it.

Legend:
Test in all cases: ≥ marks a high value that may be exact or a test limit, other limits are often not marked, values filed in µg/mL are converted to µM
Staphylococcus aureus = tested on: Staphylococcus aureus
Escherichia coli B = tested on: Escherichia coli B
Bacillus subtilis 168 = tested on: Bacillus subtilis 168
Pseudomonas aeruginosa = tested on: Pseudomonas aeruginosa
[1] = tested on: Staphylococcus aureus ATCC 29213
[2] = tested on: Klebsiella pneumoniae ATCC 13883
[3] = tested on: Staphylococcus aureus NCTC 8325
[4] = tested on: Acinetobacter baumannii ATCC 19606
Escherichia coli = tested on: Escherichia coli
[5] = tested on: Staphylococcus aureus ATCC 25923
[6] = tested on: Pseudomonas aeruginosa ATCC 27853
[7] = tested on: Escherichia coli ATCC 25922
Acinetobacter baumannii = tested on: Acinetobacter baumannii
Klebsiella pneumoniae = tested on: Klebsiella pneumoniae
Micrococcus luteus = tested on: Micrococcus luteus
Streptococcus mutans = tested on: Streptococcus mutans
[8] = tested on: Candida albicans ATCC 90028
[9] = tested on: Salmonella enterica subsp. enterica serovar Typhimurium ATCC 14028
[10] = tested on: Escherichia coli DH5alpha
[11] = tested on: Pseudomonas aeruginosa ATCC 10145
[12] = tested on: Escherichia coli ATCC 11775

Compound: CC[C@H](C)[C@H](NC(=O)[C@H](CC(C)C)NC(=O)CNC(=O)[C@H](CO)NC(=O)[C@H](CC(C)C)NC(=O)[C@@H](NC(=O)[C@H](CCCCN)NC(=O)CNC(=O)[C@@H](NC(=O)[C@H](CC(C)C)NC(=O)[C@@H]1CCCN1C(=O)[C@H](CC(C)C)NC(=O)[C@@H](N)Cc1ccccc1)C(C)C)[C@@H](C)CC)C(N)=O [FLPLVGKILSGLI]
- MIC [3]: ≥ 70 µM

Compound: CC[C@H](C)[C@H](NC(=O)CNC(=O)[C@H](CCCCN)NC(=O)CNC(=O)[C@H](C)NC(=O)[C@H](Cc1ccccc1)NC(=O)[C@H](CCCCN)NC(=O)[C@H](CO)NC(=O)[C@H](Cc1ccccc1)NC(=O)[C@H](CC(C)C)NC(=O)CN)C(=O)N[C@@H](CCCCN)C(=O)N[C@@H](CC(N)=O)C(=O)N[C@@H](CC(C)C)C(=O)N[C@H](C(=O)N[C@@H](Cc1ccccc1)C(=O)N[C@@H](CCCCN)C(=O)NCC(=O)N[C@H](C(=O)N[C@@H](CCCCN)C(=O)N[C@@H](Cc1cnc[nH]1)C(=O)N[C@H](C(=O)NCC(=O)N[C@@H](CCCCN)C(=O)N[C@@H](CCC(=O)O)C(=O)N[C@H](C(=O)NCC(=O)N[C@@H](CCSC)C(=O)N[C@@H](CC(=O)O)C(=O)N[C@H](C(=O)N[C@H](C(=O)N[C@@H](CCCN=C(N)N)C(=O)N[C@H](C(=O)NCC(=O)N[C@H](C(=O)N[C@@H](CC(=O)O)C(=O)N[C@H](C(=O)N[C@@H](C)C(=O)NCC(=O)N[C@H]1CSSC[C@@H](C(=O)O)NC(=O)[C@H](CCC(=O)O)NC(=O)CNC(=O)[C@H](CCCCN)NC(=O)[C@H]([C@@H](C)CC)NC(=O)[C@H](CCCCN)NC1=O)C(C)C)[C@@H](C)CC)[C@@H](C)O)[C@@H](C)CC)C(C)C)C(C)C)[C@@H](C)CC)C(C)C)[C@@H](C)CC [GLFSKFAGKGIKNLIFKGVKHIGKEVGMDVIRTGIDVAGCKIKGEC]
- MIC [3]: 12.5 µM (≈ 60.8 µg/mL)
- MIC [8]: ≥ 50 µM
- MIC [7]: 6 µM (≈ 29.2 µg/mL)

Compound: CC[C@H](C)[C@H](NC(=O)[C@H](Cc1cnc[nH]1)NC(=O)[C@H](C)NC(=O)[C@H](CCSC)NC(=O)[C@H](CC(N)=O)NC(=O)[C@H](CCCCN)NC(=O)[C@H](CCCCN)NC(=O)[C@@H](NC(=O)[C@@H](NC(=O)[C@H](CCCCN)NC(=O)[C@H](C)NC(=O)[C@H](Cc1ccccc1)NC(=O)[C@H](CC(C)C)NC(=O)[C@H](CCCCN)NC(=O)[C@@H]1CCCN1C(=O)[C@H](CC(C)C)NC(=O)[C@@H](N)Cc1ccccc1)[C@@H](C)CC)[C@@H](C)O)C(=O)N[C@@H](CCCN=C(N)N)C(=O)N[C@@H](CS)C(=O)O [FLPKLFAKITKKNMAHIRC]
- MIC [9]: 15 µM (≈ 33.9 µg/mL)
- MIC [6]: 15 µM (≈ 33.9 µg/mL)
- MIC [10]: 17 µM and 12 µM
- MIC [2]: 12 µM and 10 µM

Compound: CC[C@H](C)[C@H](NC(=O)[C@H](Cc1cnc[nH]1)NC(=O)[C@H](CCCCN)NC(=O)[C@H](Cc1c[nH]c2ccccc12)NC(=O)[C@H](CC(C)C)NC(=O)[C@H](CO)NC(=O)[C@H](CCSC)NC(=O)[C@H](Cc1c[nH]c2ccccc12)NC(=O)[C@H](CCCCN)NC(=O)CN)C(=O)N[C@@H](CC(C)C)C(=O)N[C@@H](CCCCN)C(N)=O [GKWMSLWKHILK]
- MIC (Staphylococcus aureus): 27 µM (≈ 41.2 µg/mL)
- MIC (Escherichia coli B): 8 µM (≈ 12.2 µg/mL)
- MIC (Bacillus subtilis 168): 1.4 µM (≈ 2.14 µg/mL)
- MIC (Pseudomonas aeruginosa): 32.5 µM (≈ 49.6 µg/mL)

Compound: CC[C@H](C)[C@H](NC(=O)[C@H](CC(C)C)NC(=O)[C@H](CCCCN)NC(=O)[C@H](CCCCN)NC(=O)[C@@H](NC(=O)[C@H](C)NC(=O)[C@H](CCCCN)NC(=O)[C@@H](NC(=O)[C@H](C)NC(=O)[C@H](Cc1cnc[nH]1)NC(=O)[C@@H]1CCCN1C(=O)[C@@H](NC(=O)[C@H](CC(C)C)NC(=O)[C@@H]1CCCN1C(=O)CNC(=O)[C@@H](NC(=O)[C@H](Cc1ccc(O)cc1)NC(=O)[C@H](CCCCN)NC(=O)[C@H](CCSC)NC(=O)[C@H](Cc1ccccc1)NC(=O)CN)[C@@H](C)CC)[C@@H](C)CC)C(C)C)[C@@H](C)CC)C(N)=O [GFMKYIGPLIPHAVKAIKKLI]
- MIC [3]: 3.13 µM (≈ 7.31 µg/mL)
- MIC [8]: 25 µM (≈ 58.4 µg/mL)
- MIC [7]: 6.25 µM (≈ 14.6 µg/mL)

Now from value to compound:

- MIC (Staphylococcus aureus): 71.6 µM (≈ 123 µg/mL)
- MIC (Escherichia coli B): 2.5 µM (≈ 4.31 µg/mL)
- MIC (Bacillus subtilis 168): 1.3 µM (≈ 2.24 µg/mL)
- MIC (Pseudomonas aeruginosa): 22.7 µM (≈ 39.1 µg/mL)
Compound: CC[C@H](C)[C@H](NC(=O)[C@H](CCCCN)NC(=O)CNC(=O)[C@H](CC(C)C)NC(=O)[C@@H](NC(=O)[C@H](CCCCN)NC(=O)[C@H](CCCCN)NC(=O)[C@H](Cc1c[nH]c2ccccc12)NC(=O)[C@@H](NC(=O)[C@@H](N)CC(N)=O)C(C)C)C(C)C)C(=O)N[C@H](C(=O)N[C@@H](CCCCN)C(=O)N[C@H](C(=O)N[C@@H](C)C(=O)N[C@@H](CCCCN)C(N)=O)C(C)C)[C@@H](C)CC [NVWKKVLGKIIKVAK]

- MIC (Staphylococcus aureus): 15.8 µM (≈ 21.8 µg/mL)
- MIC (Escherichia coli B): 7.2 µM (≈ 9.95 µg/mL)
- MIC (Bacillus subtilis 168): 1.3 µM (≈ 1.8 µg/mL)
- MIC (Pseudomonas aeruginosa): 65 µM (≈ 89.8 µg/mL)
Compound: CC[C@H](C)[C@H](NC(=O)[C@H](CC(C)C)NC(=O)[C@H](Cc1cnc[nH]1)NC(=O)CNC(=O)[C@H](CC(C)C)NC(=O)[C@@H](NC(=O)[C@H](CCCCN)NC(=O)[C@H](CO)NC(=O)[C@H](Cc1c[nH]c2ccccc12)NC(=O)[C@H](CCSC)NC(=O)CN)[C@@H](C)CC)C(=O)N[C@@H](CCCCN)C(N)=O [GMWSKILGHLIK]

- MIC [1]: 39.4 µM (≈ 64 µg/mL)
- MIC [2]: ≥ 78.9 µM
Compound: CC[C@H](C)[C@H](NC(=O)[C@H](C)NC(=O)[C@@H](N)C(C)C)C(=O)N[C@@H](C)C(=O)N[C@@H](CC(C)C)C(=O)N[C@@H](CCCCN)C(=O)N[C@@H](C)C(=O)N[C@@H](C)C(=O)N[C@@H](Cc1cnc[nH]1)C(=O)N[C@@H](Cc1ccc(O)cc1)C(=O)N[C@@H](C)C(=O)N[C@H](C(=O)N[C@@H](Cc1cnc[nH]1)C(=O)N[C@@H](CCCCN)C(=O)N[C@@H](CCC(=O)O)C(=O)O)[C@@H](C)O [VAIALKAAHYATHKE]

- MIC (Staphylococcus aureus): 16 µM (≈ 31 µg/mL)
- MIC [4]: 2 µM (≈ 3.87 µg/mL)
- MIC (Escherichia coli): 45.3 µM (≈ 87.6 µg/mL)
- MIC (Pseudomonas aeruginosa): 22.6 µM (≈ 43.8 µg/mL)
- MIC [5]: 16 µM and 22.6 µM
- MIC [6]: 8 µM (≈ 15.5 µg/mL)
- MIC [7]: 8 µM (≈ 15.5 µg/mL)
- MIC (Acinetobacter baumannii): ≥ 45.3 µM
- MIC (Klebsiella pneumoniae): 16 µM (≈ 31 µg/mL)
- MIC [2]: 16 µM (≈ 31 µg/mL)
Compound: CC[C@H](C)[C@H](NC(=O)[C@@H](N)CCCCN)C(=O)NCC(=O)N[C@@H](CCCCN)C(=O)N[C@@H](C)C(=O)N[C@@H](CC(C)C)C(=O)NCC(=O)N[C@@H](CCCCN)C(=O)N[C@@H](C)C(=O)N[C@@H](CC(C)C)C(=O)N[C@@H](CCCCN)C(=O)N[C@@H](C)C(=O)N[C@@H](CC(C)C)C(=O)NCC(=O)N[C@@H](CCCCN)C(=O)N[C@@H](C)C(=O)N[C@@H](CC(C)C)C(=O)NCC(=O)N[C@@H](CCCCN)C(=O)N[C@@H](C)C(N)=O [KIGKALGKALKALGKALGKA]

- MIC (Micrococcus luteus): ≥ 35.1 µM
Compound: CC(C)C[C@H](NC(=O)CNC(=O)[C@H](CC(C)C)NC(=O)CNC(=O)[C@H](CC(N)=O)NC(=O)[C@H](CC(C)C)NC(=O)[C@H](CC(C)C)NC(=O)[C@H](CC(N)=O)NC(=O)CNC(=O)[C@H](CC(C)C)NC(=O)[C@@H](NC(=O)CNC(=O)[C@H](CC(C)C)NC(=O)[C@H](CC(C)C)NC(=O)CN)[C@@H](C)O)C(N)=O [GLLGTLGNLLNGLGL]

- MIC (Streptococcus mutans): ≥ 93.4 µM
Compound: CC[C@H](C)[C@H](NC(=O)[C@H](CCC(N)=O)NC(=O)[C@H](CCCCN)NC(=O)[C@@H](NC(=O)[C@H](CCC(N)=O)NC(=O)[C@H](CC(N)=O)NC(=O)[C@H](CC(C)C)NC(=O)[C@@H](NC(=O)[C@@H](N)CCCN=C(N)N)C(C)C)C(C)C)C(=O)N[C@@H](CC(C)C)C(=O)N[C@@H](CCCCN)C(=O)O [RVLNQVKQILK]

- MIC [11]: ≥ 142 µM
Compound: C[C@H](NC(=O)[C@H](C)NC(=O)[C@H](CCCCN)NC(=O)[C@H](CCCCN)NC(=O)[C@H](C)NC(=O)[C@H](C)NC(=O)[C@H](CCCCN)NC(=O)[C@H](CCCCN)NC(=O)[C@H](C)NC(=O)[C@H](Cc1ccccc1)NC(=O)[C@H](CCCCN)NC(=O)[C@H](CCCCN)NC(=O)[C@H](C)NC(=O)[C@H](Cc1ccccc1)NC(=O)[C@@H](N)CCCCN)C(=O)N[C@@H](CCCCN)C(=O)O [KFAKKFAKKAAKKAAK]

- MIC [12]: ≥ 36 µM
- MIC [5]: 143 µM (≈ 201 µg/mL)
- MIC [6]: 143 µM (≈ 201 µg/mL)
- MIC [7]: 36 µM (≈ 50.5 µg/mL)
Compound: NCCCC[C@H](NC(=O)[C@H](Cc1c[nH]c2ccccc12)NC(=O)[C@H](CCC(N)=O)NC(=O)[C@H](Cc1c[nH]c2ccccc12)NC(=O)[C@H](CCCCN)NC(=O)[C@H](Cc1c[nH]c2ccccc12)NC(=O)[C@H](CCC(N)=O)NC(=O)[C@H](Cc1c[nH]c2ccccc12)NC(=O)[C@@H](N)CCCCN)C(=O)O [KWQWKWQWK]
